From ChEMBL document CHEMBL1124303, “Conformational requirements of substrates for activity with phenylethanolamine N-methyltransferase” (J Med Chem, 1988)
pKi: −log10 of the molar value.

Columns and labels:
[1] = molecular target: T1, Phenylethanolamine N-methyltransferase (Bos taurus, UniProt P10938); test: Binding affinity to phenylethanolamine N-methyltransferase(PNMT) in bovine
T1 sequence (P10938 whole entry): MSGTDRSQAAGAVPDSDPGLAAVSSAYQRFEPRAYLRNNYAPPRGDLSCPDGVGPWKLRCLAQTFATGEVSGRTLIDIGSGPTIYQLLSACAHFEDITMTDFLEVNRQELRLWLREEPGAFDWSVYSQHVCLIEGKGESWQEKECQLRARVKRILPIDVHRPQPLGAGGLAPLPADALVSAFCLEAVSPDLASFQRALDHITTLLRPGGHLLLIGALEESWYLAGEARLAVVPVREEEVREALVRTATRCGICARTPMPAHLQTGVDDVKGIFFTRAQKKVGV

[2] = Vmax value was measured; format: ADME
[3] = Km value was measured; format: ADME
[4] = Ratio of Vmax to Km of compound was determined; format: ADME

Compound	pKi [1]	Vmax [2] [nmol/min/mg]	Km [3] [µM]	Ratio [4]
N[C@H]1CCc2ccccc2[C@@H]1O	5.03	–	–	–
c1ccc2c(c1)CCNC2 [1,2,3,4-TETRAHYDROISOQUINOLINE]	5.00	–	–	–
NC[C@@H](O)c1ccccc1	–	2.2	70	–
N[C@H]1CCc2ccccc2[C@H]1O	–	0.15	22	68
OC1CNCc2ccccc21 (stereo not drawn)	3.75	–	–	–
